Assay results taken from patent US11578087B2, “Oxaborole esters and uses thereof” (priority 2016, dated 2023).

Columns and labels:
[1] = tested on: IL3000 T. congolense (drug sensitive) strain; experiment: In vitro Alamar Blue 72 h drug sensitivity assay for T. congolense; format: cell-based, Trypanosoma congolense; settings: Trypanosoma congolense, 72 h, bloodstream form, 69 h + 3 h Resazurin, 34° C., read-out: IC50: I Org. Growth T. congolense 3 d
In short: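 Bloodstream-form trypanosomes in HMI medium with 20% bovine serum were exposed to compounds for 69 h at 34° C, 5% CO2, then resazurin for another 3 h. Fluorescence read at ex 536/em 588 nm; IC50 from 11-point sigmoidal dose-response curves, at least three independent runs.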

[2] = tested on: T. cruzi amastigote (Td Tomato-modified) in Vero cells; experiment: In vitro IC50 measurement of T. cruzi amastigote killing using Td Tomato-modified T. cruzi; format: cell-based; settings: Trypanosoma cruzi, 72 h, fluorescence, read-out: IC50: I Org. amastigote Growth T. cruzi 3 d
In short: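 Vero cells infected with Td Tomato-expressing T. cruzi, treated with compound at 5 uM to 5 nM final, incubated 72 h at 37 °C. Fluorescence (Ex 544/Em 612 nm) read at Day 0 and Day 3, Day 0 subtracted; IC50 and IC90 by nonlinear regression.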

| Structure (SMILES) | IC50 [1] [nM] | IC50 [2] [nM] |
| --- | --- | --- |
| Cc1c(C(=O)N[C@H](C(=O)OCc2cccc(N3CCOCC3)n2)C(C)C)ccc2c1B(O)OC2 [Example 6-197, (6-morpholinopyridin-2-yl)methyl (1-hydroxy-7-methyl-1,3-dihydrobenzo[c][1,2]oxaborole-6-carbonyl)-L-valinate] | < 0.5 | ≤ 20 |
| Cc1c(C(=O)N[C@H](C(=O)OCc2ccc(C#N)cn2)C(C)C)ccc2c1B(O)OC2 [Example 6-200, (5-cyanopyridin-2-yl)methyl (1-hydroxy-7-methyl-1,3-dihydrobenzo[c][1,2]oxaborole-6-carbonyl)-L-valinate] | < 0.5 | ≤ 20 |
| Cc1c(C(=O)N[C@H](C(=O)OCc2cccc(N3CCN(C)CC3)n2)C(C)C)ccc2c1B(O)OC2 [Example 6-201, (6-(4-methylpiperazin-1-yl)pyridin-2-yl)methyl (1-hydroxy-7-methyl-1,3-dihydrobenzo[c][1,2]oxaborole-6-carbonyl)-L-valinate] | < 0.5 | 21 to 999 |
| Cc1c(C(=O)N[C@H](C(=O)OCc2ncc(F)cn2)C(C)C)ccc2c1B(O)OC2 [Example 6-202, (5-fluoropyrimidin-2-yl)methyl (1-hydroxy-7-methyl-1,3-dihydrobenzo[c][1,2]oxaborole-6-carbonyl)-L-valinate] | < 0.5 | ≤ 20 |
| Cc1c(C(=O)N[C@H](C(=O)OCc2nccc(C(F)(F)F)n2)C(C)C)ccc2c1B(O)OC2 [Example 6-203, (4-(trifluoromethyl)pyrimidin-2-yl)methyl (1-hydroxy-7-methyl-1,3-dihydrobenzo[c][1,2]oxaborole-6-carbonyl)-L-valinate] | < 0.5 | ≤ 20 |
| Cc1c(C(=O)N[C@H](C(=O)OCc2cncc(N3CCN(C)CC3)n2)C(C)C)ccc2c1B(O)OC2 [Example 6-204, (6-(4-methylpiperazin-1-yl)pyrazin-2-yl)methyl (1-hydroxy-7-methyl-1,3-dihydrobenzo[c][1,2]oxaborole-6-carbonyl)-L-valinate] | < 0.5 | ≤ 20 |
| Cc1c(C(=O)N[C@H](C(=O)OCCN2CC(C)OC(C)C2)C(C)C)ccc2c1B(O)OC2 (stereo partly drawn) [Example 6-206, 2-(2,6-dimethylmorpholino)ethyl (1-hydroxy-7-methyl-1,3-dihydrobenzo[c][1,2]oxaborole-6-carbonyl)-L-valinate] | < 0.5 | 21 to 999 |
| Cc1c(C(=O)N[C@H](C(=O)OCC(C)N2CCOCC2)C(C)C)ccc2c1B(O)OC2 (stereo partly drawn) [Example 6-207, 2-morpholinopropyl (1-hydroxy-7-methyl-1,3-dihydrobenzo[c][1,2]oxaborole-6-carbonyl)-L-valinate] | 0.51 to 9.99 | 21 to 999 |
| Cc1c(C(=O)N[C@H](C(=O)OCCCN2CCOCC2)C(C)C)ccc2c1B(O)OC2 [Example 6-208, 3-morpholinopropyl (1-hydroxy-7-methyl-1,3-dihydrobenzo[c][1,2]oxaborole-6-carbonyl)-L-valinate] | 0.51 to 9.99 | 21 to 999 |
| Cc1c(C(=O)N[C@H](C(=O)OCCC(C)(C)O)C(C)C)ccc2c1B(O)OC2 [Example 6-209, 3-hydroxy-3-methylbutyl (1-hydroxy-7-methyl-1,3-dihydrobenzo[c][1,2]oxaborole-6-carbonyl)-L-valinate] | 0.51 to 9.99 | 21 to 999 |
| Cc1c(C(=O)N[C@H](C(=O)OCC2CCCO2)C(C)C)ccc2c1B(O)OC2 (stereo partly drawn) [Example 6-210, (tetrahydrofuran-2-yl)methyl (1-hydroxy-7-methyl-1,3-dihydrobenzo[c][1,2]oxaborole-6-carbonyl)-L-valinate] | < 0.5 | ≤ 20 |
| Cc1c(C(=O)N[C@H](C(=O)OCC(C)(C)O)C(C)C)ccc2c1B(O)OC2 [Example 6-211, 2-hydroxy-2-methylpropyl (1-hydroxy-7-methyl-1,3-dihydrobenzo[c][1,2]oxaborole-6-carbonyl)-L-valinate] | 0.51 to 9.99 | 21 to 999 |
| Cc1c(C(=O)N[C@H](C(=O)OCCN2CCCC2=O)C(C)C)ccc2c1B(O)OC2 [Example 6-212, 2-(2-oxopyrrolidin-1-yl)ethyl (1-hydroxy-7-methyl-1,3-dihydrobenzo[c][1,2]oxaborole-6-carbonyl)-L-valinate] | 10 to 5000 | 21 to 999 |
| Cc1c(C(=O)N[C@H](C(=O)OCCN2CCCOCC2)C(C)C)ccc2c1B(O)OC2 [Example 6-214, 2-(1,4-oxazepan-4-yl)ethyl (1-hydroxy-7-methyl-1,3-dihydrobenzo[c][1,2]oxaborole-6-carbonyl)-L-valinate] | 0.51 to 9.99 | ≥ 1000 |
| Cc1c(C(=O)N[C@H](C(=O)OC[C@H]2CCCO2)C(C)C)ccc2c1B(O)OC2 [Example 6-215, ((R)-tetrahydrofuran-2-yl)methyl (1-hydroxy-7-methyl-1,3-dihydrobenzo[c][1,2]oxaborole-6-carbonyl)-L-valinate] | < 0.5 | ≤ 20 |
| Cc1c(C(=O)N[C@H](C(=O)OCCN2CCOC2=O)C(C)C)ccc2c1B(O)OC2 [Example 6-216, 2-(2-oxooxazolidin-3-yl)ethyl (1-hydroxy-7-methyl-1,3-dihydrobenzo[c][1,2]oxaborole-6-carbonyl)-L-valinate] | 10 to 5000 | ≥ 1000 |
| Cc1c(C(=O)N[C@H](C(=O)OCCN2CC3(COC3)C2)C(C)C)ccc2c1B(O)OC2 [Example 6-218, 2-(2-oxa-6-azaspiro[3.3]heptan-6-yl)ethyl (1-hydroxy-7-methyl-1,3-dihydrobenzo[c][1,2]oxaborole-6-carbonyl)-L-valinate] | 10 to 5000 | ≥ 1000 |
| Cc1c(C(=O)N[C@H](C(=O)OCCN2CCOCC2C)C(C)C)ccc2c1B(O)OC2 (stereo partly drawn) [Example 6-219, 2-(3-methylmorpholino)ethyl (1-hydroxy-7-methyl-1,3-dihydrobenzo[c][1,2]oxaborole-6-carbonyl)-L-valinate] | < 0.5 | 21 to 999 |
| Cc1c(C(=O)N[C@H](C(=O)OCC2(O)CCCC2)C(C)C)ccc2c1B(O)OC2 [Example 6-220, (1-hydroxycyclopentyl)methyl (1-hydroxy-7-methyl-1,3-dihydrobenzo[c][1,2]oxaborole-6-carbonyl)-L-valinate] | 0.51 to 9.99 | ≤ 20 |
| Cc1c(C(=O)NC2(C(=O)OCc3ccc(F)cc3)COC2)ccc2c1B(O)OC2 [Example 6-221, 4-fluorobenzyl 3-(1-hydroxy-7-methyl-1,3-dihydrobenzo[c][1,2]oxaborole-6-carboxamido)oxetane-3-carboxylate] | 0.51 to 9.99 | 21 to 999 |
| Cc1c(C(=O)NC2(C(=O)OCCN3CCOCC3)COC2)ccc2c1B(O)OC2 [Example 6-222, 2-morpholinoethyl 3-(1-hydroxy-7-methyl-1,3-dihydrobenzo[c][1,2]oxaborole-6-carboxamido)oxetane-3-carboxylate] | 10 to 5000 | ≥ 1000 |
| Cc1c(C(=O)NC2(C(=O)OCc3ccccn3)COC2)ccc2c1B(O)OC2 [Example 6-223, Pyridin-2-ylmethyl 3-(1-hydroxy-7-methyl-1,3-dihydrobenzo[c][1,2]oxaborole-6-carboxamido)oxetane-3-carboxylate] | 10 to 5000 | 21 to 999 |
| Cc1c(C(=O)NC2(C(=O)OCC3CCCC3)COC2)ccc2c1B(O)OC2 [Example 6-224, Cyclopentylmethyl 3-(1-hydroxy-7-methyl-1,3-dihydrobenzo[c][1,2]oxaborole-6-carboxamido)oxetane-3-carboxylate] | 0.51 to 9.99 | ≤ 20 |
| Cc1c(C(=O)N[C@H](C(=O)OCc2cnc(N)nc2)C(C)C)ccc2c1B(O)OC2 [Example 6-225, (2-aminopyrimidin-5-yl)methyl (1-hydroxy-7-methyl-1,3-dihydrobenzo[c][1,2]oxaborole-6-carbonyl)-L-valinate] | 10 to 5000 | 21 to 999 |
| Cc1c(C(=O)N[C@H](C(=O)OCC2(F)CCOCC2)C(C)C)ccc2c1B(O)OC2 [Example 6-226, (4-fluorotetrahydro-2H-pyran-4-yl)methyl (1-hydroxy-7-methyl-1,3-dihydrobenzo[c][1,2]oxaborole-6-carbonyl)-L-valinate] | < 0.5 | ≤ 20 |
| Cc1c(C(=O)N[C@H](C(=O)OCC2CCCC2)C(C)(C)O)ccc2c1B(O)OC2 [Example 6-228, Cyclopentylmethyl (S)-3-hydroxy-2-(1-hydroxy-7-methyl-1,3-dihydrobenzo[c][1,2]oxaborole-6-carboxamido)-3-methylbutanoate] | < 0.5 | 21 to 999 |
| Cc1c(C(=O)N[C@H](C(=O)OCC2(O)CCCCC2)C(C)C)ccc2c1B(O)OC2 [Example 6-229, (1-hydroxycyclohexyl)methyl (1-hydroxy-7-methyl-1,3-dihydrobenzo[c][1,2]oxaborole-6-carbonyl)-L-valinate] | < 0.5 | ≤ 20 |
| Cc1c(C(=O)N[C@H](C(=O)OCc2ccc(OCCN3CCCC3)c(F)c2)C(C)C)ccc2c1B(O)OC2 [Example 6-242, 3-Fluoro-4-(2-(pyrrolidin-1-yl)ethoxy)benzyl (1-hydroxy-7-methyl-1,3-dihydrobenzo[c][1,2]oxaborole-6-carbonyl)-L-valinate] | 0.51 to 9.99 | ≤ 20 |
| Cc1c(C(=O)N[C@H](C(=O)OCc2ccc(OCCN3CCCC3)c(Cl)c2)C(C)C)ccc2c1B(O)OC2 [Example 6-243, 3-Chloro-4-(2-(pyrrolidin-1-yl)ethoxy)benzyl (1-hydroxy-7-methyl-1,3-dihydrobenzo[c][1,2]oxaborole-6-carbonyl)-L-valinate] | 0.51 to 9.99 | 21 to 999 |
